Assay: Moisture absorbency of telmisartan and telmisartan meglumine salt
Type: physicochemical
Excerpt: As mentioned above, it is known that the hydrolysis of hydrochlorothiazide is promoted by temperature and humidity.

| SMILES | moisture absorbency (result in words) | moisture absorbency relative to telmisartan itself |
| --- | --- | --- |
| CCCc1nc2c(C)cc(-c3nc4ccccc4n3C)cc2n1Cc1ccc(-c2ccccc2C(=O)O)cc1 [telmisartan] | relatively low |  |
| CCCc1nc2c(C)cc(-c3nc4ccccc4n3C)cc2n1Cc1ccc(-c2ccccc2C(=O)O)cc1.CNCC(O)C(O)C(O)C(O)CO [telmisartan meglumine salt] |  | about 10 times |
